Measurements from patent publication EP4733299A1, “SULFUR-CONTAINING FUSED RING COMPOUND, PHARMACEUTICAL COMPOSITION CONTAINING SAME, AND PREPARATION METHOD THEREFOR AND USE THEREOF” (Shenzhen Braegen Pharmaceutical Co., Ltd., priority 2023, dated 2024).

Experiments:
[1] = target: T1, α-Synuclein aggregates (Homo sapiens, UniProt P37840); test: Fluorescence binding assay with protein aggregates (fluorescence spectrophotometer); conditions: compound 5 µM, 37°C, 5 min
T1 construct: purchased Proteos Inc RP-002
Protocol: (§1) First, the compound was a final concentration of 5 µM by dissolved in 50 mM Tris-buffer (pH 7.0) with 0.0025% (v/v) DMSO. Then, Aβ, α-Synuclein, and Tau aggregates were added, with their final concentrations being 0.02, 0.04, 0.08, 0.16, 0.32, 0.64, and 1.28 µM, respectively. Subsequently, the fluorescence measurements were detected using a fluorescence spectrophotometer (Horiba, Fluorolog3).
α-synuclein Aggregates (Proteos Inc; catalog No.: RP-002).
(§2) Tau aggregates: The cDNA sequence of Tau was inserted into a plasmid carrying a GST tag, which was then transfected into BL21 bacteria for protein expression. Bacterial pellets were resuspended in high-salt buffer (0.75 M NaCl, 50 mM Tris, pH 7.4, 1 mM EDTA), sonicated, and centrifuged at 70,000 x g for 30 min. The supernatants were applied onto a Glutathione sepharose beads column (GE Healthcare) and purified by GST tag. Thrombin was used to remove the GST tag. The protein was dialyzed with FPLC buffer (50 mM NaCl, 50 mM Tris- HCl pH 7.4). The protein was filtered through a 0.22 µm syringe filter. The concentration of Tau was adjusted to 3 mg/mL, 12.5 µM heparin was added, and the mixture was shaken at 37 °C and 300 rpm for 7 days to prepare Tau aggregates. • Incubation Concentrations: 0.02, 0.04, 0.08, 0.16, 0.32, 0.64, and 1.28 µM; • Incubation Temperature: 37°C; • Incubation Duration: 5 min; • Detection Wavelengths: [formula]
(§3) Statistical analysis was performed using GraphPad Prism® version 8.2.1.

[2] = test system: Aβ plaques; test: Ex vivo staining of human AD patient brain sections; format: binding; conditions: AD brains; Fig. 3
Protocol: (§4) The ex vivo screening was extended into human DLB, and AD patient samples. Neurodegenerative diseases of DLB belong to synucleino-pathies with well-defined Lewy bodies. Therefore, the positive compounds should show robust signals with LBs and LNs.
(§5) For immunohistochemical staining, deparaffinized and antigen-retrieved 20 µm-thick human brain sections were treated with 0.3% H2O2 at room temperature for 10 min. Subsequently, the sections were washed in PBS with 0.3% Triton X-100 3 times and then blocked with 1% BSA for 30 min, followed by overnight incubation with anti-Aβ/AT8/α-Syn pS129 antibody at 4 °C. The signal was developed using a Histostain-SP kit (Invitrogen, Catalog No.: 95-9943). After washing, the sections were covered with a glass cover using mounting solution.

[3] = test system: AT8-positive NFTs; test: as above; format: binding; conditions: AD brains; Fig. 3
Protocol: as §4, §5

[4] = target: Tau aggregates (Homo sapiens, UniProt P10636); test: Fluorescence binding assay with protein aggregates (fluorescence spectrophotometer); conditions: 5 min; for Ratio / α-Synuclein: Kd for Tau to Kd for α-Synuclein; for Kd: Tau aggregates, compound 5 µM, 37°C
Protocol: as §1, §2, §3

[5] = test system: α-Syn aggregated neurons; test: Staining of primary cultured neurons infected with AAV α-Syn and treated with α-Syn PFFs, fluorescence microscopy; format: cell-based, Sprague-Dawley rats; conditions: compounds 0.1 mM; Fig. 1
Protocol: Primary cultured neurons were infected with adeno-associated virus (AAV) encoding a-Syn for 7 days and then treated with a-Syn PFFs. The candidate compounds were added to the primary neurons with the indicated aggregates and analyzed using fluorescence microscopy.
Primary hippocampal neurons were isolated from […] pregnant rats. The Sprague-Dawley rats were used at embryonic E18 days. The cortical tissue was isolated, dissociated, and incubated with 5 ml of D-Hanks containing 0.25% trypsin for 5 min at 37 °C in a humidified atmosphere of 5% CO2, centrifuged at 1000 x g for 5 min after addition of 4 ml of the neuronal plating medium containing DMEM/F12 with 10% fetal bovine serum. The 1 × 10^5 cells were plated in 6-well plates for further process. DIV7 neurons were infected with AAV α-Syn FL virus and at DIV12, the neurons were transduced with 100 ng/ml α-Syn PFF, α-Syn 1-140 were incubated with the cultured primary neurons in sterile PBS to a final concentration of 0.1 mg/ml. Sonicated PFFs, or an equivalent volume of the monomer as a control, were transferred into pre-warmed neuronal medium at a final concentration of 100 ng/ml. The samples were immune-stained with anti-p-α-Syn S129 (Abcam; Catalog No.: ab59264) (pseudo-colors were converted to red) to detect a-Syn aggregates and then stained with ThT (Sigma; Catalog No.: S96200) or compounds (0.1 mM).

[6] = test system: Aβ aggregates; test: Fluorescence binding assay with protein aggregates (fluorescence spectrophotometer); conditions: Kd for Aβ to Kd for α-Synuclein
Protocol: as §1
(§6) Aβ PFF: Aβ (1-42) peptide (rPeptide; catalog No.: A-1163-1) was resolved in 9 volumes of ice-cold distilled water and vortexed occasionally. After 30 min, one volume of 10X fibril-forming buffer (0.2 M NaPi, 1.5 M NaCl, 0.2% NaN3, pH 7.5) was added. The final concentration of peptide was 1 mg/ml. The solution was incubated at 37 °C for one week.
as §2, §3

[7] = target: T2, Aβ aggregates (Homo sapiens, UniProt P05067); test: as above; conditions: Aβ aggregates; compound 5 µM, 37°C, 5 min
T2 construct: Aβ (1-42) peptide (rPeptide; catalog No.: A-1163-1); purchased rPeptide A-1163-1
Protocol: as §1, §6, §2, §3

[8] = target: T3, AT8 (Homo sapiens, UniProt P10636, P618S); test: In vivo validation: tail vein injection, then staining of brain sections; parameters: species or system Tau P301S mice; conditions: 2 mg/kg tail vein injection; 0.5 hours after administration
T3 construct: tissue The Jackson Laboratory 008169; host or cells: brain of Tau P301S mice, compound injected in vivo, sections made afterwards
Protocol: In vivo validation of the compounds was performed using 8-month-old wild-type mice (Jiangsu Aniphe Biolaboratory Inc), 12-month-old 5xFAD mice (The Jackson Laboratory; Catalog No.: 034840), 6-month-old Tau P301S mice (The Jackson Laboratory; Catalog No.: 008169), and rotenone-treated α-Syn A53T mice (The Jackson Laboratory; Catalog No.: 017682). All mice were stratified by sex and randomly divided into groups, and the compounds were administered via tail vein injection at a dose of 2 mg/kg. Tissues were harvested and mouse brain sections were prepared 0.5 hours after administration, followed by staining with anti-Aβ (Biolegend; Catalog No.: SIG-39300) or AT8 (Thermo Fisher; Catalog No.: MN1020) together with the compounds, respectively.

T2 sequence (P05067 672-713): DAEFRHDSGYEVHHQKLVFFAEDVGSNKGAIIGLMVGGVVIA
T3 sequence (P10636 1-412 isoform P10636-7 P272S): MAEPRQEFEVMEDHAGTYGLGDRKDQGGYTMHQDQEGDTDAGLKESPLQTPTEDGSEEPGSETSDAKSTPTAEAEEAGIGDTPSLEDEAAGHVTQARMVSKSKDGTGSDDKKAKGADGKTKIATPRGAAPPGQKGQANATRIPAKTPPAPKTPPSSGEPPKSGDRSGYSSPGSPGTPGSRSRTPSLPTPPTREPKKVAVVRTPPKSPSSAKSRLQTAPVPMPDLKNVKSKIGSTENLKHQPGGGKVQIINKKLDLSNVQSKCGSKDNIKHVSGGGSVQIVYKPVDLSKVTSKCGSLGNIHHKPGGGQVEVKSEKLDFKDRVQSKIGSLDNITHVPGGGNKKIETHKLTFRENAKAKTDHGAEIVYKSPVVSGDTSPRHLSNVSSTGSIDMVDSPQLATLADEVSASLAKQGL
Chain of Tau aggregates (P10636 with tags, fused parts or gaps): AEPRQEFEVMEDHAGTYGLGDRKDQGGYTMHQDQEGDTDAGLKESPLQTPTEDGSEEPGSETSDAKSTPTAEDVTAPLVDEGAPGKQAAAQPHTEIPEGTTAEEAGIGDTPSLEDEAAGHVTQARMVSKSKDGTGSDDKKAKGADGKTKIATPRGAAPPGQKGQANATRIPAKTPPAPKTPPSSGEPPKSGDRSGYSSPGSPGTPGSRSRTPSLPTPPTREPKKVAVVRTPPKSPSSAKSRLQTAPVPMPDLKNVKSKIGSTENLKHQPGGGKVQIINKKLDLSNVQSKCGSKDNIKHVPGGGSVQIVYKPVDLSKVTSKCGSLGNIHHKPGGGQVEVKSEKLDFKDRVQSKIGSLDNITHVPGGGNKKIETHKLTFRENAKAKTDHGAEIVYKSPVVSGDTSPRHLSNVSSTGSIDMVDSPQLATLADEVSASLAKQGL

Row | Compound | Kd [1] | staining of Aβ plaques [2] | staining of AT8-positive NFTs [3] | Ratio / α-Synuclein [4] | Kd [4] | signals in α-Syn aggregated neurons [5] | Ratio / α-Synuclein [6] | Kd [7] | specific binding to AT8 [8]
1 | Cc1cc2nc(/C=C/c3ccc(O)c(N)c3)sc2cc1N(C)CCOCCF [Compound C, (E)-2-amino-4-(2-(6-((2-(2-fluoroethoxy)ethyl)(methyl)amino)-5-methylbenzo[d]thiazol-2-yl)vinyl)phenol] | 314 nM | did not stain | did not stain | 2.00 | 626 nM | selectively yielded positive signals | 4.80 | 1510 nM | no specific binding
2 | COc1c(/C=C/c2nc3cc(C)c(N(C)CCOCCF)cc3s2)ccc(O)c1Br [Compound E, (E)-2-bromo-4-(2-(6-((2-(2-fluoroethoxy)ethyl)(methyl)amino)-5-methylbenzo[d]thiazol-2-yl)vinyl)-3-methoxyphenol] | 15.6 nM | did not stain | did not stain | 2.34 | 36.5 nM | selectively yielded positive signals | 5.59 | 87.2 nM | no specific binding
3 | CCN(CCOCCF)c1cc2sc(/C=C/c3ccc(O)c(Br)c3)nc2cc1C [Compound R, (E)-2-bromo-4-(2-(6-(ethyl(2-(2-fluoroethoxy)ethyl)amino)-5-methylbenzo[d]thiazol-2-yl)vinyl)phenol] | 80.9 nM | did not stain | did not stain | 32.13 | 2600 nM | selectively yielded positive signals | 15.74 | 1270 nM | no specific binding
